Experimental data as given in patent US11034650B2, “Compounds useful for treating a Mannheimia haemolytica or Histophilus somni infection” (Intervet Inc., priority 2016, dated 2021).
Converted amounts (≈) assume the structure as drawn.

What was measured:
Assay type in all cases: cell-based
[1] = test system: Mannheimia haemolytica MH 13065 (XB0446-6003.9, BRD field isolate); assay: MIC, broth-microdilution (CLSI VET01-A4), strain MH 13065; details: Mannheimia haemolytica strain MH 13065, broth-microdilution; unit assumed
In short: (§1)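 MIC is the lowest compound concentration showing no visible growth by eye, read from doubling-dilution microdilution trays. Method followed CLSI VET01-A4, with interpretation under CLSI VET01-S3.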

[2] = test system: Pasteurella multocida PM 12080 (IV102277-0093, BRD field isolate); assay: MIC, broth-microdilution (CLSI VET01-A4), strain PM 12080; details: Pasteurella multocida strain PM 12080, broth-microdilution; unit assumed
In short: as §1

[3] = test system: Pasteurella multocida PM 6267 (P 2225 (L386), reference strain, mouse infection strain); assay: MIC, broth-microdilution (CLSI VET01-A4), strain PM 6267; details: Pasteurella multocida strain PM 6267, broth-microdilution; unit assumed
In short: as §1

[4] = test system: Mannheimia haemolytica MH 6357 (M7/2, reference strain, cattle infection strain); assay: MIC, broth-microdilution (CLSI VET01-A4), strain MH 6357; details: Mannheimia haemolytica strain MH 6357, broth-microdilution; unit assumed
In short: as §1

[5] = test system: Pasteurella multocida PM 6391 (ATCC 43137, reference strain); assay: MIC, broth-microdilution (CLSI VET01-A4), strain PM 6391; details: Pasteurella multocida strain PM 6391, broth-microdilution; unit assumed
In short: as §1

[6] = test system: Pasteurella multocida PM 10775 (080130003051, BRD field isolate); assay: MIC, broth-microdilution (CLSI VET01-A4), strain PM 10775; details: Pasteurella multocida strain PM 10775, broth-microdilution; unit assumed
In short: as §1

[7] = test system: Mannheimia haemolytica MH 12587 (1071, BRD field isolate, macrolide-resistance: erm+, E+); assay: MIC, broth-microdilution (CLSI VET01-A4), strain MH 12587; details: Mannheimia haemolytica strain MH 12587, broth-microdilution; unit assumed
In short: as §1

[8] = test system: Mannheimia haemolytica MH 10720 (154, BRD field isolate); assay: MIC, broth-microdilution (CLSI VET01-A4), strain MH 10720; details: Mannheimia haemolytica strain MH 10720, broth-microdilution; unit assumed
In short: as §1

[9] = test system: Mannheimia haemolytica MH 6374 (ATCC 33396, reference strain); assay: MIC, broth-microdilution (CLSI VET01-A4), strain MH 6374; details: Mannheimia haemolytica strain MH 6374, broth-microdilution; unit assumed
In short: as §1

[10] = test system: Mannheimia haemolytica MH 13093 (XB0472-6014.1, BRD field isolate); assay: MIC, broth-microdilution (CLSI VET01-A4), strain MH 13093; details: Mannheimia haemolytica strain MH 13093, broth-microdilution; unit assumed
In short: as §1

Row | Structure (SMILES) | MIC MH 13065 [1] | MIC PM 12080 [2] | MIC PM 6267 [3] | MIC MH 6357 [4] | MIC PM 6391 [5] | MIC PM 10775 [6] | MIC MH 12587 [7] | MIC MH 10720 [8] | MIC MH 6374 [9] | MIC MH 13093 [10]
1 | CC(C)(C(NC(=O)c1ccc(C#Cc2ccc(CNCc3ccncc3)cc2)cc1)C(=O)NO)[N+](=O)[O-] (stereo not shown) [Compound 278] | 0.4 µg/mL (≈ 0.798 µM) | ≤ 0.1 µg/mL | ≤ 0.1 µg/mL | 0.4 µg/mL (≈ 0.798 µM) | ≤ 0.1 µg/mL | ≤ 0.1 µg/mL | 0.8 µg/mL (≈ 1.6 µM) | ≤ 0.1 µg/mL | 0.4 µg/mL (≈ 0.798 µM) | 0.4 µg/mL (≈ 0.798 µM)
2 | CC(C)(C(NC(=O)c1ccc(C#Cc2ccc(CNCc3ccc(C(F)(F)F)cc3)cc2)cc1)C(=O)NO)[N+](=O)[O-] (stereo not shown) [Compound 279] | 6.3 µg/mL (≈ 11.1 µM) | 1.6 µg/mL (≈ 2.81 µM) | 0.4 µg/mL (≈ 0.704 µM) | 3.1 µg/mL (≈ 5.45 µM) | 1.6 µg/mL (≈ 2.81 µM) | 0.4 µg/mL (≈ 0.704 µM) | 6.3 µg/mL (≈ 11.1 µM) | 1.6 µg/mL (≈ 2.81 µM) | 6.3 µg/mL (≈ 11.1 µM) | 6.3 µg/mL (≈ 11.1 µM)
3 | C=CCNCc1ccc(C#Cc2ccc(C(=O)NC(C(=O)NO)C(C)(C)[N+](=O)[O-])cc2)cc1 (stereo not shown) [Compound 280] | 1.6 µg/mL (≈ 3.55 µM) | 0.2 µg/mL (≈ 0.444 µM) | ≤ 0.1 µg/mL | 1.6 µg/mL (≈ 3.55 µM) | 0.4 µg/mL (≈ 0.888 µM) | ≤ 0.1 µg/mL | 3.1 µg/mL (≈ 6.88 µM) | ≤ 0.1 µg/mL | 0.8 µg/mL (≈ 1.78 µM) | 1.6 µg/mL (≈ 3.55 µM)
4 | CC(C)(C(NC(=O)c1ccc(C#Cc2ccc(CNCc3ccccn3)cc2)cc1)C(=O)NO)[N+](=O)[O-] (stereo not shown) [Compound 282] | 0.4 µg/mL (≈ 0.798 µM) | 0.2 µg/mL (≈ 0.399 µM) | 0.8 µg/mL (≈ 1.6 µM) | 0.8 µg/mL (≈ 1.6 µM) | 0.4 µg/mL (≈ 0.798 µM) | 0.4 µg/mL (≈ 0.798 µM) | 1.6 µg/mL (≈ 3.19 µM) | ≤ 0.1 µg/mL | 0.8 µg/mL (≈ 1.6 µM) | 1.6 µg/mL (≈ 3.19 µM)
5 | Cc1ccc(CNCc2ccc(C#Cc3ccc(C(=O)NC(C(=O)NO)C(C)(C)[N+](=O)[O-])cc3)cc2)cc1 (stereo not shown) [Compound 283] | 1.6 µg/mL (≈ 3.11 µM) | 0.8 µg/mL (≈ 1.55 µM) | 3.1 µg/mL (≈ 6.02 µM) | 3.1 µg/mL (≈ 6.02 µM) | 1.6 µg/mL (≈ 3.11 µM) | 0.2 µg/mL (≈ 0.389 µM) | 6.3 µg/mL (≈ 12.2 µM) | 0.2 µg/mL (≈ 0.389 µM) | 3.1 µg/mL (≈ 6.02 µM) | 3.1 µg/mL (≈ 6.02 µM)
6 | CC(C)(C(NC(=O)c1ccc(C#Cc2ccc(CNCc3ccc(F)cc3)cc2)cc1)C(=O)NO)[N+](=O)[O-] (stereo not shown) [Compound 284] | 0.2 µg/mL (≈ 0.386 µM) | ≤ 0.1 µg/mL | 0.8 µg/mL (≈ 1.54 µM) | 0.4 µg/mL (≈ 0.771 µM) | 0.4 µg/mL (≈ 0.771 µM) | ≤ 0.1 µg/mL | 1.6 µg/mL (≈ 3.09 µM) | ≤ 0.1 µg/mL | 0.8 µg/mL (≈ 1.54 µM) | 0.8 µg/mL (≈ 1.54 µM)
7 | COCCCNCc1ccc(C#Cc2ccc(C(=O)NC(C(=O)NO)C(C)(C)[N+](=O)[O-])cc2)cc1 (stereo not shown) [Compound 285] | 1.6 µg/mL (≈ 3.32 µM) | 0.8 µg/mL (≈ 1.66 µM) | 3.1 µg/mL (≈ 6.42 µM) | 1.6 µg/mL (≈ 3.32 µM) | 1.6 µg/mL (≈ 3.32 µM) | ≤ 0.1 µg/mL | 6.3 µg/mL (≈ 13.1 µM) | ≤ 0.1 µg/mL | 3.1 µg/mL (≈ 6.42 µM) | 3.1 µg/mL (≈ 6.42 µM)
8 | CC(C)(C(NC(=O)c1ccc(C#Cc2ccc(CNCc3cccnc3)cc2)cc1)C(=O)NO)[N+](=O)[O-] (stereo not shown) [Compound 286] | 0.4 µg/mL (≈ 0.798 µM) | ≤ 0.1 µg/mL | 0.8 µg/mL (≈ 1.6 µM) | 0.4 µg/mL (≈ 0.798 µM) | 0.8 µg/mL (≈ 1.6 µM) | ≤ 0.1 µg/mL | 1.6 µg/mL (≈ 3.19 µM) | ≤ 0.1 µg/mL | 0.8 µg/mL (≈ 1.6 µM) | 0.8 µg/mL (≈ 1.6 µM)
9 | CC(C)(C(NC(=O)c1ccc(C#Cc2ccc(CNCc3ccco3)cc2)cc1)C(=O)NO)[N+](=O)[O-] (stereo not shown) [Compound 287] | 0.8 µg/mL (≈ 1.63 µM) | ≤ 0.1 µg/mL | 0.8 µg/mL (≈ 1.63 µM) | 0.4 µg/mL (≈ 0.815 µM) | 0.4 µg/mL (≈ 0.815 µM) | ≤ 0.1 µg/mL | 1.6 µg/mL (≈ 3.26 µM) | ≤ 0.1 µg/mL | 0.8 µg/mL (≈ 1.63 µM) | 0.8 µg/mL (≈ 1.63 µM)
10 | CC(C)(C(NC(=O)c1ccc(C#Cc2ccc(CNCC(F)(F)F)cc2)cc1)C(=O)NO)[N+](=O)[O-] (stereo not shown) [Compound 288] | 0.4 µg/mL (≈ 0.812 µM) | ≤ 0.1 µg/mL | 0.4 µg/mL (≈ 0.812 µM) | 0.4 µg/mL (≈ 0.812 µM) | ≤ 0.1 µg/mL | ≤ 0.1 µg/mL | 0.8 µg/mL (≈ 1.62 µM) | ≤ 0.1 µg/mL | 0.8 µg/mL (≈ 1.62 µM) | 0.8 µg/mL (≈ 1.62 µM)
